According to patent publication US12102087B2 (priority 2012, dated 2024):

How the values were obtained:
Type in all cases: in vivo
Phytophthora infestans = assay: whole plant or invertebrate; details: for pest or weed control at 0.2 ppm: application rate 0.2 ppm a.i.
Sphaerotheca fuliginea = assay: Sphaerotheca test (cucumbers)/preventive
Description: (§1) A synergistic effect of fungicides is always present when the fungicidal activity of the active compound combinations exceeds the total of the activities of the active compounds when applied individually. The expected activity for a given combination of two active compounds can be calculated as follows (cf. Colby, S. R., “Calculating Synergistic and Antagonistic Responses of Herbicide Combinations”, Weeds 1967, 15, 20-22):
(§2) If • X is the efficacy when active compound A is applied at an application rate of m ppm (or g/ha), • Y is the efficacy when active compound B is applied at an application rate of n ppm (or g/ha), • E is the efficacy when the active compounds A and B are applied at application rates of m and n ppm (or g/ha), respectively, and
Sphaerotheca Test (Cucumbers)/Preventive • Solvent: 24.5 parts by weight of acetone • 24.5 parts by weight of dimethylacetamide • Emulsifier: 1 part by weight of alkylaryl polyglycol ether
(§3) To produce a suitable preparation of active compound, 1 part by weight of active compound is mixed with the stated amounts of solvent and emulsifier, and the concentrate is diluted with water to the desired concentration.
To test for preventive activity, young plants are sprayed with the preparation of active compound at the stated rate of application. After the spray coating has dried on, the plants are inoculated with an aqueous spore suspension of Sphaerotheca fuliginea. The plants are then placed in a greenhouse at approximately 23° C. and a relative atmospheric humidity of approximately 70%.
The test is evaluated 7 days after the inoculation. 0% means an efficacy which corresponds to that of the untreated control, while an efficacy of 100% means that no disease is observed.

Venturia inaequalis = assay: Venturia test (apples)/preventive; details: for pest or weed control at 0.5 ppm: application rate 0.5 ppm a.i.
Description: as §1, §2
Venturia test (apples)/preventive • Solvent: 24.5 parts by weight of acetone • 24.5 parts by weight of dimethylacetamide • Emulsifier: 1 part by weight of alkylaryl polyglycol ether
as §3
To test for preventive activity, young plants are sprayed with the preparation of active compound at the stated rate of application. After the spray coating has dried on, the plants are inoculated with an aqueous conidia suspension of the causal agent of apple scab (Venturia inaequalis) and then remain for 1 day in an incubation cabinet at approximately 20° C. and a relative atmospheric humidity of 100%.
The plants are then placed in a greenhouse at approximately 21° C. and a relative atmospheric humidity of approximately 90%.
The test is evaluated 10 days after the inoculation. 0% means an efficacy which corresponds to that of the untreated control, while an efficacy of 100% means that no disease is observed.

[1] = Table 5, application rate 2.5 ppm a.i.
[2] = Table 7, application rate 1 ppm a.i.
[3] = Table 3, application rate 1.25 ppm a.i.
[4] = Table 3, application rate 2.5 ppm a.i.
[5] = Phytophthora infestans, 72 h, read-out: Efficacy in % found, Table 4
[6] = Venturia inaequalis, 240 h, Table 11, read-out: Efficacy in % found
[7] = Phytophthora infestans, 72 h, read-out: Efficacy in % found, Table 3, application rate 2.5 ppm a.i.
[8] = Table 3, application rate 5 ppm a.i.

For `Cn1cc(C(=O)Nc2cccc3c2[C@@H]2CC[C@H]3C2=C(Cl)Cl)c(C(F)F)n1` (racemic) [2.29, benzovindiflupyr], the “Efficacy in % found” value (Phytophthora infestans; [1]) was 0% and the “Efficacy in % found” value (Sphaerotheca fuliginea; Table 7, application rate 0.5 ppm a.i.) was 0%.

`OC(Cc1ccccc1Cl)(Cn1nc[nH]c1=S)C1(Cl)CC1` (stereo not shown) [1.41, prothioconazole] was tested, and the “Efficacy in % found” value (Sphaerotheca fuliginea; Table 8, application rate 2 ppm a.i.) was 19%.

`CC(C)(C)C(O)(CCc1ccc(Cl)cc1)Cn1cncn1` (stereo not shown) [1.47, tebuconazole] showed a pest or weed control at 2 ppm (Venturia inaequalis; Venturia inaequalis, 240 h, Table 11, application rate 2 ppm a.i., read-out: Efficacy in % found) of 11%.

`Cn1cc(C(=O)Nc2ccc(F)cc2-c2ccc(Cl)c(Cl)c2)c(C(F)F)n1` [2.1, bixafen] was tested, and the “Efficacy in % found” value (Sphaerotheca fuliginea; [2]) was 10% and the “Efficacy in % found” value (Venturia inaequalis; Table 10, application rate 1 ppm a.i.) was 84%.

`CC(C)C1C2CCC1c1c(NC(=O)c3cn(C)nc3C(F)F)cccc12` (stereo not shown) [2.12, isopyrazam] was tested, and the “Efficacy in % found” value (Phytophthora infestans; [1]) was 0%, the “Efficacy in % found” value (Sphaerotheca fuliginea; [2]) was 19% and the “Efficacy in % found” value (Sphaerotheca fuliginea; Table 7, application rate 2 ppm a.i.) was 57%.

In the case of `CCCCCCCCc1c(CC)nc2ncnn2c1N` [3.1, ametoctradin], the “Efficacy in % found” value (Phytophthora infestans; [3]) is reported as 15% and the “Efficacy in % found” value (Phytophthora infestans; [4]) is reported as 22%.

With `Cc1c(Br)c2ccc(F)cc2n1S(=O)(=O)c1ncn(S(=O)(=O)N(C)C)n1` [3.2, amisulbrom] the “Efficacy in % found” value (Phytophthora infestans; Table 4, application rate 1 ppm a.i.) was 19%.

`CO/C=C(/C(=O)OC)c1ccccc1Oc1cc(Oc2ccccc2C#N)ncn1` [3.3, azoxystrobin] was tested, and the “Efficacy in % found” value (Venturia inaequalis; Table 11, application rate 0.25 ppm a.i.) was 38%.

With `Cc1ccc(-c2c(Cl)nc(C#N)n2S(=O)(=O)N(C)C)cc1` [3.4, cyazofamid] the pest or weed control at 0.2 ppm (Phytophthora infestans; [5]) was 8%.

With `CSC1=N[C@@](C)(c2ccccc2)C(=O)N1Nc1ccccc1` [3.10, fenamidone] the pest or weed control at 0.5 ppm (Phytophthora infestans; Phytophthora infestans, 72 h, read-out: Efficacy in % found, Table 4, application rate 0.5 ppm a.i.) was 3%.

Work on `CO/N=C(/C1=NOCCO1)c1ccccc1Oc1ncnc(Oc2ccccc2Cl)c1F` [3.12, fluoxastrobin] yielded a pest or weed control at 0.5 ppm (Venturia inaequalis; [6]) of 44%.

For `COC(=O)N(OC)c1ccccc1COc1ccn(-c2ccc(Cl)cc2)n1` [3.17, pyraclostrobin], the pest or weed control at 0.5 ppm (Venturia inaequalis; [6]) was 19%.

Molecule `CON=C(C(=O)OC)c1ccccc1CON=C(C)c1cccc(C(F)(F)F)c1` [3.22, trifloxystrobin] has a pest or weed control at 0.5 ppm (Venturia inaequalis; [6]) of 77%.

With `CC(C)[C@H](NC(=O)O)C(=O)N[C@H](C)c1nc2ccc(F)cc2s1` [9.1, benthiavalicarb] the “Efficacy in % found” value (Phytophthora infestans; Table 4, application rate 0.5 ppm a.i.) was 52%.

With `COc1ccc(C(=CC(=O)N2CCOCC2)c2ccc(Cl)cc2)cc1OC` [9.2, dimethomorph] the pest or weed control at 1 ppm (Phytophthora infestans; Phytophthora infestans, 72 h, read-out: Efficacy in % found, Table 4, application rate 1 ppm a.i.) was 20%.

For `Cc1ccc(C(C)NC(=O)[C@@H](NC(=O)OC(C)C)C(C)C)cc1` (stereo partly shown) [9.4, iprovalicarb], the “Efficacy in % found” value (Phytophthora infestans; Table 4, application rate 2 ppm a.i.) was 9%.

In the case of `O=[N+]([O-])c1cc(C(F)(F)F)c(Cl)c([N+](=O)[O-])c1Nc1ncc(C(F)(F)F)cc1Cl` [14.4, fluazinam], the pest or weed control at 2.5 ppm (Phytophthora infestans; [7]) is reported as 0%.

In the case of `CCNC(=O)NC(=O)/C(C#N)=N/OC` [15.9, cymoxanil], the pest or weed control at 2.5 ppm (Phytophthora infestans; [7]) is reported as 0% and the pest or weed control at 5 ppm (Phytophthora infestans; Phytophthora infestans, 72 h, read-out: Efficacy in % found, Table 3, application rate 5 ppm a.i.) is reported as 0%.

`OP(O)O` [15.41, phosphorous acid] was tested, and the “Efficacy in % found” value (Phytophthora infestans; [4]) was 0% and the “Efficacy in % found” value (Phytophthora infestans; [8]) was 13%.

`CCCCCOC(=O)Nc1cccc(CON=C(c2ccccc2)c2nnnn2C)n1` [15.90, pentyl {6-[({[(1-methyl-1H-tetrazol-5-yl)(phenyl)methylidene]amino}oxy)methyl]pyridin-2-yl}carbamate] showed a pest or weed control at 0.2 ppm (Phytophthora infestans; [5]) of 10%.

fosetyl-aluminium [15.24] was tested, and the “Efficacy in % found” value (Phytophthora infestans; [4]) was 0% and the “Efficacy in % found” value (Phytophthora infestans; [8]) was 0%.

With metalaxyl-M (mefenoxam) [12.10] the “Efficacy in % found” value (Phytophthora infestans; [3]) was 10% and the “Efficacy in % found” value (Phytophthora infestans; [4]) was 36%.

propamocarb hydrochloride [10.10] was tested, and the “Efficacy in % found” value (Phytophthora infestans; Table 6, application rate 2.5 ppm a.i.) was 0%, the “Efficacy in % found” value (Sphaerotheca fuliginea; Table 9, application rate 200 ppm a.i.) was 0% and the “Efficacy in % found” value (Sphaerotheca fuliginea; Table 9, application rate 400 ppm a.i.) was 0%.
